Assay results reported in the supplement of paper PMC13380429.
± gives the standard deviation of the averaged measurements.

Key:
Conditions in all cases: 72 h
[1] = tested on: Calu-3; test: drug sensitivity score (DSS) for viability; higher = more toxic; extreme values may be limits of the assay
[2] = tested on: HepG2; test: as above
[3] = tested on: U2OS; test: as above
[4] = tested on: Vero E6; test: as above
[5] = tested on: Caco-2; test: as above
[6] = tested on: Calu-3; test: relative viability EC50 (midpoint between 100% and the lowest measured viability); higher = less toxic
[7] = tested on: HepG2; test: as above
[8] = tested on: U2OS; test: as above
[9] = tested on: Vero E6; test: as above
[10] = tested on: Caco-2; test: as above
[11] = tested on: Calu-3; test: cell viability relative to DMSO; higher = less toxic
[12] = tested on: HepG2; test: as above
[13] = tested on: U2OS; test: as above
[14] = tested on: Vero E6; test: as above
[15] = tested on: Caco-2; test: as above

Structure (SMILES)	drug sensitivity score [1]	drug sensitivity score [2]	drug sensitivity score [3]	drug sensitivity score [4]	drug sensitivity score [5]	relative viability EC50 [6]	relative viability EC50 [7]	relative viability EC50 [8]	relative viability EC50 [9]	relative viability EC50 [10]	cell viability ([11]; 1 nM)	cell viability ([11]; 10 nM)	cell viability ([11]; 100 nM)	cell viability ([11]; 1000 nM)	cell viability ([11]; 10000 nM)	cell viability ([12]; 1 nM)	cell viability ([12]; 10 nM)	cell viability ([12]; 100 nM)	cell viability ([12]; 1000 nM)	cell viability ([12]; 10000 nM)	cell viability ([13]; 1 nM)	cell viability ([13]; 10 nM)	cell viability ([13]; 100 nM)	cell viability ([13]; 1000 nM)	cell viability ([13]; 10000 nM)	cell viability ([14]; 1 nM)	cell viability ([14]; 10 nM)	cell viability ([14]; 100 nM)	cell viability ([14]; 1000 nM)	cell viability ([14]; 10000 nM)	cell viability ([15]; 1 nM)	cell viability ([15]; 10 nM)	cell viability ([15]; 100 nM)	cell viability ([15]; 1000 nM)	cell viability ([15]; 10000 nM)
C[C@H]1COc2c(C3(N)CC3)c(F)cc3c(=O)c(C(=O)O)cn1c23 [pazufloxacin]	0	0	0	0	0	> 10 µM	> 10 µM	> 10 µM	> 10 µM	> 10 µM	96.9%	98.7%	90.6%	101%	89.3%	88.8%	107%	101%	98.9%	99.4%	103%	103%	100%	99.9%	97.3%	93.7%	103%	103%	94.6%	99.2%	103%	93.5%	90.3%	99.2%	102%
CC(C)NCC(O)COc1cccc2[nH]ccc12 (stereo not given) [pindolol]	0	0	0	0	0	> 10 µM	> 10 µM	> 10 µM	> 10 µM	> 10 µM	98.8 ± 1.1%	97 ± 6.8%	100.4 ± 0.28%	103.8 ± 0.92%	102 ± 15%	111 ± 10%	90 ± 12%	105 ± 0.14%	85.5 ± 29%	103 ± 8.6%	103 ± 5%	101 ± 2.3%	99.5 ± 3.3%	102.5 ± 0.35%	103 ± 0.14%	99.2 ± 1.3%	95.8 ± 1.4%	96.1 ± 9.6%	98.8 ± 2.1%	95 ± 11%	117%	100%	122%	101%	90.9%
CN1CCN(CC(=O)N2c3ccccc3C(=O)Nc3cccnc32)CC1 [pirenzepine]	0	0	0	0	0	> 10 µM	> 10 µM	> 10 µM	> 10 µM	> 10 µM	97.5%	87.3%	104%	96.3%	103%	113%	99.9%	88.9%	103%	97.7%	96.1%	93.8%	99.6%	98.7%	101%	103%	101%	98.4%	103%	102%	85.5%	103%	99.9%	93.9%	95%
NS(=O)(=O)c1cc(C(=O)O)cc(N2CCCC2)c1Oc1ccccc1 [piretanide]	0	0	0	0	0	> 10 µM	> 10 µM	> 10 µM	> 10 µM	> 10 µM	90%	98.7%	90.5%	94.8%	101%	101%	99.7%	85.1%	105%	110%	95.5%	96.7%	101%	98.4%	103%	98.5%	100%	93.3%	101%	105%	90.2%	97.4%	106%	104%	110%
CC(C)(C)c1[nH]cnc1/C=c1\[nH]c(=O)/c(=C/c2ccccc2)[nH]c1=O [plinabulin]	17.3	19.7	21.3	23.9	13.1	0.0465 µM	0.0668 µM	0.0591 µM	0.0633 µM	0.123 µM	102%	87.9%	56.8%	40.7%	36.6%	108%	97.1%	50.1%	25.5%	30.9%	101%	94.9%	45.3%	22.3%	20.6%	106%	101%	32.7%	11.7%	11.4%	107%	89.1%	68.6%	53.5%	37.6%
Nc1cccc2c1C(=O)N(C1CCC(=O)NC1=O)C2=O (stereo not given) [pomalidomide]	0	0	0	0	0	> 10 µM	> 10 µM	> 10 µM	> 10 µM	> 10 µM	106%	103%	103%	105%	90.9%	104%	104%	98.5%	101%	111%	99%	97.3%	104%	96.1%	98.4%	93.5%	97.1%	89.2%	99.4%	103%	86%	85%	103%	95%	98.3%
COC(=O)C1=C(C)NC(C)=C(C(=O)OC/C=C/c2ccccc2)C1c1cccc([N+](=O)[O-])c1 (stereo not given) [pranidipine]	0	0	0	0	0	> 10 µM	> 10 µM	> 10 µM	> 10 µM	> 10 µM	103%	101%	99.7%	91.7%	91.8%	97.1%	102%	107%	103%	95.1%	98.1%	93%	99.6%	95.5%	94.8%	93.8%	103%	83.1%	95.1%	96.9%	101%	80%	97%	91.5%	92.6%
CCC1(CC)C(=O)C=CNC1=O [pyrithyldione]	0	0	0	0	0	> 10 µM	> 10 µM	> 10 µM	> 10 µM	> 10 µM	93.1%	94.1%	99.5%	99.9%	96.7%	91%	92%	94.9%	104%	95.1%	98.2%	95%	97.8%	95.1%	96.6%	93.5%	107%	97.5%	102%	93.6%	100%	93.1%	93.4%	92.3%	102%
CCC1NC(=O)c2cc(S(N)(=O)=O)c(Cl)cc2N1 (stereo not given) [quinethazone]	0	0	0	0	0.7	> 10 µM	> 10 µM	> 10 µM	> 10 µM	> 10 µM	101%	94.8%	97.5%	91.2%	95.1%	110%	103%	103%	92.6%	93.1%	91.9%	100%	93.3%	101%	105%	106%	86.7%	103%	100%	98.6%	94.3%	108%	96.4%	97.4%	82.9%
NC(=O)c1cn(Cc2c(F)cccc2F)nn1 [rufinamide]	0	0	0	0	0	> 10 µM	> 10 µM	> 10 µM	> 10 µM	> 10 µM	101%	97.7%	99.1%	101%	100%	109%	102%	94.1%	101%	97.4%	99.6%	100%	101%	98%	104%	101%	101%	101%	97.9%	103%	111%	97.4%	93.3%	97.1%	104%
O=C(CCCCCN1C(=O)c2cccc3cccc(c23)C1=O)NO [scriptaid]	8	8.8	9.4	9.3	8.6	1.3 µM	1.64 µM	1.45 µM	1.56 µM	1.72 µM	101%	102%	102%	73.7%	23.4%	108%	109%	93%	78.2%	2.9%	102%	98.6%	96.8%	72.7%	3.1%	107%	106%	103%	75.3%	0.1%	107%	90.8%	97.6%	80%	2.4%
Clc1ccc(C(Cn2ccnc2)OCc2csc3c(Cl)cccc23)c(Cl)c1 (stereo not given) [sertaconazole]	0	0	0	0	0.1	> 10 µM	> 10 µM	> 10 µM	> 10 µM	> 10 µM	106%	96.1%	106%	95.1%	96.1%	116%	96.8%	102%	105%	100%	94.1%	95.4%	98.9%	91.4%	88.6%	102%	102%	105%	105%	99.5%	97%	101%	95%	95.6%	85.4%
CC(C)(C)C(=O)Oc1ccc(S(=O)(=O)Nc2ccccc2C(=O)NCC(=O)O)cc1 [sivelestat]	0	0	0	0	0	> 10 µM	> 10 µM	> 10 µM	> 10 µM	> 10 µM	97.2%	96.1%	90.5%	103%	109%	101%	92.6%	103%	90%	98.3%	98.5%	100%	96.2%	101%	96.5%	107%	96.5%	104%	98.8%	100%	91%	97%	94.1%	93.5%	91.3%
O=C1O[C@H]([C@@H](O)CO)C([O-])=C1O.[Na+] [sodium-ascorbate]	0	0	0	0	0	> 10 µM	> 10 µM	> 10 µM	> 10 µM	> 10 µM	100%	102%	97%	98.5%	102%	96.8%	104%	92.1%	110%	111%	97.9%	89.9%	101%	97.7%	103%	97.5%	107%	97.2%	100%	106%	91.7%	93.1%	98.9%	95.2%	102%
